Laboratory results published in EP4786486A1, “PEPTIDES FOR TREATING CARDIAC DISEASES” (Universidad Complutense De Madrid, priority 2023, dated 2025).
Where no end group is shown, it is not given here.

Key:
[1] = test system: minimal promoter of the human KCNJ2 gene; assay: Luciferase promoter assay in hEK-293 cells, KCNJ2; assay type: cell-based; conditions: hEK-293 cells co-transfected with cDNA SEQ ID NO: 5; 48 hours after transfection
Method: 48 hours after transfection, luciferase assays were performed using the LightSwitch Luciferase Assay reagent, also from Active Motif, and a Berthold luminometer. All assays were performed in triplicate and each point represents the mean of each technical triplicate.

[2] = test system: dissociated cardiomyocytes from Sham and TAC mice; assay: INa density in dissociated cardiomyocytes, murine TAC model of HFrEF; assay type: in vivo; conditions: pre-treatment with DECA-11 (AAV9)
Source text: (§1) A murine model of CI with reduced ejection fraction (HFrEF) was used to analyse the effect of SEQ ID NO: 3 on the decrease in INa and IK1 caused by electrical remodelling associated with Cl. The mice are subjected to transverse aortic constriction (TAC) with ligation, and pressure overload leads to the occurrence of cardiac hypertrophy and Cl. The mice were produced at the Medical Research Centre of the University of Navarra (CIMA), under the direction of Dr Aránzazu González Miqueo.
(§2) Eight-week-old mice were administered 3.5×10^10 particles of adeno-associated virus type 9 that encoded either the fluorescent reporter td-Tomato (Aav-dt-T) alone, or the reporter and the peptide DECA-11. At 12 weeks of age, an echocardiographic check-up (baseline) was performed and at week 13 they underwent surgery in which the aorta was ligated (TAC animals) or not (Sham animals).
That same week they were sent to the UCM animal facility. Next, the mice were heparinised and anaesthetised and then sacrificed by cervical dislocation, at a rate of one per day, and a thoracotomy was performed to remove the heart which was mounted through the aorta into a cannula connected to a Langendorff apparatus for enzymatic dissociation of the cardiac myocytes. […]

[3] = test system: murine model of CI with reduced ejection fraction (HFrEF); assay: Murine model of CI (transverse aortic constriction): capacitance, INa and IK1 of dissociated cardiomyocytes; assay type: in vivo, mice
Source text: as §1, §2
That same week they were sent to the UCM animal facility. Next, the mice were heparinised and anaesthetised and then sacrificed by cervical dislocation, at a rate of one per day, and a thoracotomy was performed to remove the heart which was mounted through the aorta into a cannula connected to a Langendorff apparatus for enzymatic dissociation of the cardiac myocytes. After removal of the heart, said heart was cannulated through the aorta and placed in a Langendorff apparatus. First, the hearts were perfused with modified Tyrode's solution (composition in mM: 136 NaCI, 4 KCI, 2 MgCl2, 1.8 CaCl2, 10 HEPES, 10 glucose, 3 pyruvic acid and 0.1 thiamine, pH=7.4 with NaOH) bubbled with oxygen and at 37°C for 3-5 minutes. Subsequently, they were perfused for another 8 minutes with the same solution without CaCl2. After 1-2 minutes, the heart stops beating. Next, they were perfused with Tyrode's solution without CaCl2 supplemented with 120 u/ml collagenase type II from Worthington and 0.5 u/ml protease XIV from Sigma. Lastly, the hearts were perfused with a solution called KB of the following composition (mM): 25 KCI, 10 KH2PO4, 2 MgCI2, 0.5 EGTA-K, 5 HEPES-K, 100 glutamic acid, 10 aspartic acid, 20 taurine, 5 creatine and 10 glucose (pH=7.2 with KOH). After this process has been completed, the heart was detached from the cannula and shaken in aliquots of KB solution where the myocytes were disintegrated and stored in the refrigerator for at least one hour before electrophysiological recordings were started.
Capacitance is an indirect and reliable measure of cell size. As can be observed, there was no significant difference in the capacitance of myocytes from Sham animals, had they been infected with Ad-td-Tomato (control) or with Aav-DECA-11.
To record INa in mouse cardiomyocytes, the composition of the external solution was (mM): 4 NaCl, 1 MgCl2, 1 CaCl2, 0.1 CdCl2, 133.5 CsCl, 20 HEPES and 11 glucose (pH=7.35 with CsOH) and the solution that filled the recording micropipette was (mM): 10 NaF, 110 CsF, 20 CsCl, 10 HEPES and 10 EGTA (pH 7.35 with CsOH). All other protocols and conditions were the same as those used for recording INa in human iPSC-derived cardiomyocytes (according to Example 2.3).
As indicated above, IK1 was also recorded in mouse cardiomyocytes from all four groups. […] In fact, the density of IK1 in TAC animals pretreated with DECA-11 is not different from that recorded in Sham animals.

[4] = cardiomyocytes from Sham animals
[5] = cardiomyocytes from TAC animals

Sequence | effect on the minimal promoter of the human KCNJ2 gene (luciferase) [1] | density of INa ([2]; TAC cardiomyocytes) | density of INa [2, 4] | capacitance of myocytes ([3]; TAC animals, vs untreated TAC animals) | IK1 [3, 4] | density of INa [3, 4] | IK1 [3, 5] | density of INa [3, 5]
RFTRESLAAIE (listed as Homo sapiens) [SEQ ID NO: 3, 11-amino acid peptide, amino acids 15-25 of human Nav1.5] | protranscriptional effect | significantly and markedly increased | increased |  |  |  |  | 
RFTRESLAAIE [DECA-11, RFTRESLAAIE] |  |  |  | significantly lower | significantly increases IK1 | increased the density of INa | significantly increases IK1 | significantly and markedly increased the density of INa
